Experiment [1] has as its system Aedes aegypti. In words: Larvicidal activity against fourth instar Aedes aegypti larvae assessed as mortality rate at 100 ug/ml measured after 48 hrs relative to control. Type of experiment: functional.
Experiment [2] concerns Aedes aegypti. The experiment is described as follows: Larvicidal activity against fourth instar Aedes aegypti larvae assessed as lethal concentration measured after 48 hrs. The class given is functional.
Experiment [3] deals with Aedes aegypti. In words: Induction of morphological changes in fourth instar Aedes aegypti larvae assessed as loss in anal papillae at LC50 concentration measured after 48 hrs by scanning electron microscopic analysis. The class given is functional, organism-based.
The test system of experiment [4] is Aedes aegypti. The experiment is described as follows: Induction of morphological changes in fourth instar Aedes aegypti larvae assessed as modification in terminal abdomen in 6th to 8th segment at LC50 concentration measured after 48 hrs by scanning electron microscopic analysis. Type of experiment: functional, organism-based.
Experiment [5] deals with Aedes aegypti. The experiment is described as follows: Induction of morphological changes in fourth instar Aedes aegypti larvae assessed as damage in thorax at LC50 concentration measured after 48 hrs by scanning electron microscopic analysis. Type of experiment: functional.

Values after ≈ are worked out from the molar mass of the structure shown. Active and inactive are the calls of the source. The rule behind the calls is not given here.

In the case of `C=C(C(=O)OC)C(O)/C=C/c1ccccc1` (stereo not given), in experiment [1], the mortality at 100 µg/mL came out at 71.7%.

For `CC[C@H]1CCC[C@H](O[C@H]2CC[C@H](N(C)C)[C@@H](C)O2)[C@@H](C)C(=O)C2=C[C@@H]3[C@@H](C=C[C@@H]4C[C@@H](O[C@@H]5O[C@@H](C)[C@H](OC)[C@@H](OC)[C@H]5OC)C[C@@H]34)[C@@H]2CC(=O)O1` [SPINOSYN A], in experiment [2], the LC50 is 0.02 µg/mL (≈ 0.0273 µM).

Turning to `C=C(C(=O)OCC)C(O)c1ccc([N+](=O)[O-])cc1` (stereo not given), the mortality at 100 µg/mL in experiment [1] amounted to 16.7%.

For the compound `COP(=S)(OC)Oc1ccc(Sc2ccc(OP(=S)(OC)OC)cc2)cc1` [TEMEFOS], the median lethal concentration (LC50) in experiment [2] came to 4.25 µg/mL (≈ 9.11 µM).

With `C=C(C(=O)OCC)C(O)c1nccs1` (stereo not given), the mortality at 100 µg/mL in experiment [1] was 10%.

Turning to `C=C(C(=O)OC)C(O)c1ccc2ccccc2c1` (stereo not given), the mortality at 100 µg/mL in experiment [1] came to 88.3%. In experiment [2], the LC50 was 77.7 µg/mL (≈ 321 µM).

On to `C=C(C(=O)OC)C(O)c1ccccc1Cl` (stereo not given), for which the mortality at 100 µg/mL in experiment [1] came to 21.7%.

`C=C(C(=O)OC)C(O)c1ccc(-c2ccccc2)cc1` (stereo not given): the result in experiment [3] and in experiment [4] was Active. Besides, the mortality at 100 µg/mL in experiment [1] came out at 93.3%. In addition, in experiment [2], the LC50 was 41.4 µg/mL (≈ 154 µM). The Activity in experiment [5] stood at 100%.

With `C=C(C(=O)OC)C(O)c1ccc(Cl)cc1` (stereo not given), the mortality at 100 µg/mL in experiment [1] was determined as 81.7%. Moreover, the median lethal concentration (LC50) in experiment [2] stood at 88.2 µg/mL (≈ 389 µM).

Take `C=C(C(=O)OC)C(O)c1ccc(F)cc1` (stereo not given): in experiment [1], the mortality at 100 µg/mL worked out at 16.7%.

Consider `CC(COc1ccc(Oc2ccccc2)cc1)Oc1ccccn1` (stereo not given) [PYRIPROXYFEN], for which the median lethal concentration (LC50) in experiment [2] was determined as 1.75 µg/mL (≈ 5.45 µM).

`C=C(C(=O)OC)C(O)c1ccc(Br)cc1` (stereo not given): the mortality at 100 µg/mL in experiment [1] was found to be 51.7%.

As for `CC[C@H]1CCC[C@H](O[C@H]2CC[C@H](NC)[C@@H](C)O2)[C@@H](C)C(=O)C2=C[C@@H]3[C@@H](C=C[C@@H]4C[C@@H](O[C@@H]5O[C@@H](C)[C@H](OC)[C@@H](OC)[C@H]5OC)C[C@@H]34)[C@@H]2CC(=O)O1`, the LC50 in experiment [2] was 0.02 µg/mL (≈ 0.0279 µM).

Turning to `C=C(C(=O)OCC)C(O)c1ccccc1Cl` (stereo not given), the mortality at 100 µg/mL in experiment [1] amounted to 85%. For the same compound, the LC50 in experiment [2] was found to be 86.7 µg/mL (≈ 360 µM).

On to `C=C(C(=O)OCC)C(O)c1ccc(OC)cc1` (stereo not given), for which, in experiment [1], the mortality at 100 µg/mL stood at 21.7%.

On to `C=C(C(=O)OC)C(O)c1ccc(C)cc1` (stereo not given), for which, in experiment [1], the mortality at 100 µg/mL is 10%.

For `C=C(C(=O)OC)C(O)c1cc(OC)c(OC)c(OC)c1` (stereo not given), in experiment [1], the mortality at 100 µg/mL came to 16.7%.

With `CC[C@H]1CCC[C@H](O[C@H]2CC[C@H](N(C)C)[C@@H](C)O2)[C@@H](C)C(=O)C2=C[C@@H]3[C@@H](C=C(C)[C@@H]4C[C@@H](O[C@@H]5O[C@@H](C)[C@H](OC)[C@@H](OC)[C@H]5OC)C[C@@H]34)[C@@H]2CC(=O)O1` [SPINOSYN D], the LC50 in experiment [2] is 0.02 µg/mL (≈ 0.0268 µM).

Values taken from ChEMBL document CHEMBL5325443, “Discovery and structure-activity relationship of Morita-Baylis-Hillman adducts as larvicides against dengue mosquito vector, Aedes aegypti (Diptera: Culicidae)” (2023).
